Reference: patent publication US20070015823A1, “Ambruticin VS compounds” (priority 2004, published 2007)
Values after ≈ are worked out from the molar mass of the structure shown.

Columns and labels:
[1] = tested on: C. posadasii; assay: microbe, parasite or virus in culture; type: cell-based, Coccidioides posadasii
[2] = tested on: Cryptococcus neoformans; assay: Broth microdilution antifungal susceptibility, NCCLS M38-A; conditions: 50% growth inhibition, range = minimum and maximum of multiple assays
[3] = tested on: Fusarium solani; assay: as above; type: cell-based; conditions: strain 96-1; 50% growth inhibition; range = minimum and maximum of multiple assays
[4] = tested on: A. flavus ATCC 204304; assay: as above; type: cell-based, Aspergillus flavus; conditions: minimal concentration inhibiting >95% growth; average of at least two assays (except I-l and I-x)
[5] = tested on: C. immitis; assay: microbe, parasite or virus in culture; type: cell-based, Coccidioides immitis
[6] = tested on: Microsporum gypseum; assay: Dermatophyte broth microdilution, NCCLS M38-A; type: cell-based
[7] = tested on: Blastomyces dermatitidis; assay: Broth microdilution antifungal susceptibility, NCCLS M38-A; type: cell-based
[8] = tested on: Trichophyton mentagrophytes; assay: Dermatophyte broth microdilution, NCCLS M38-A; type: cell-based
[9] = tested on: Trichophyton rubrum; assay: Dermatophyte broth microdilution, NCCLS M38-A; type: cell-based
[10] = tested on: Candida albicans
[11] = tested on: Histoplasma capsulatum; type: cell-based
[12] = tested on: Microsporum canis; assay: Dermatophyte broth microdilution, NCCLS M38-A; type: cell-based
[13] = tested on: S. apiospermum; assay: Broth microdilution antifungal susceptibility, NCCLS M38-A; type: cell-based, Scedosporium apiospermum
[14] = tested on: A. fumigatus ATCC 204305; assay: as above; type: cell-based, Aspergillus fumigatus; conditions: minimal concentration inhibiting >95% growth; average of at least two assays (except I-l and I-x)
[15] = tested on: Epidermophyton floccosum; assay: Dermatophyte broth microdilution, NCCLS M38-A; type: cell-based
[16] = tested on: Candida parapsilosis; conditions: strain 92019; 95% growth inhibition
[17] = tested on: Candida krusei; conditions: strain 6258; 95% growth inhibition
[18] = tested on: Trichophyton interdigitale; assay: Dermatophyte broth microdilution, NCCLS M38-A; type: cell-based

Q: Which “MIC C. posadasii C735” value [1] does the source give for `CC[C@H]1O[C@@H](/C(C)=C/[C@H](C)/C=C/[C@H]2[C@@H](C)[C@@H]2/C=C/[C@@H]2O[C@H](CC(=O)O)C[C@H](N(C)C(C)C)[C@H]2O)CC=C1C` [I-v, (5S,6R)-5-(N-isoproyl-methylamino)-6-hydroxypolyangioic acid] here?
A: 0.25 µg/mL (≈ 0.472 µM)

Q: What about the “MIC C. posadasii RMSCC 2127” value [1] of the same compound?
A: 0.125 µg/mL (≈ 0.236 µM)

Q: What about the “MIC C. posadasii Silveria” value [1] of the same compound?
A: 0.25 µg/mL (≈ 0.472 µM)

Q: What about the “MIC C. neoformans 97-14” value ([2]; strain 97-14) of the same compound?
A: 0.5 µg/mL (≈ 0.944 µM)

Q: And the “MIC C. neoformans 11239” value ([2]; strain 11239)?
A: 0.25 µg/mL (≈ 0.472 µM)

Q: What about the “MIC C. neoformans 11240” value ([2]; strain 11240) of the same compound?
A: 0.25 to 0.5 µg/mL

Q: What about the “MIC F. solani 96-1” value [3] of the same compound?
A: >16 µg/mL

Q: What about the “MIC0 A. flavus ATCC 204304” value [4] of the same compound?
A: 1.1 µg/mL

Q: And the “MIC C. immitis RMS 2281” value [5]?
A: 0.125 µg/mL (≈ 0.236 µM)

Q: And the “MIC C. immitis RS” value [5]?
A: 0.25 µg/mL (≈ 0.472 µM)

Q: And the “MIC C. immitis S46” value [5]?
A: 0.125 µg/mL (≈ 0.236 µM)

Q: And the “MIC0 Mg” value [6]?
A: 2 µg/mL

Q: And the “MIC0 Blastomyces dermatitidis 04-2167” value [7]?
A: 0.06 µg/mL

Q: And the “MIC0 Blastomyces dermatitidis 04-2508” value [7]?
A: 0.06 µg/mL

Q: What about the “MIC0 Blastomyces dermatitidis 04-2915” value [7] of the same compound?
A: 0.125 µg/mL

Q: And the “MIC0 Blastomyces dermatitidis 05-106” value [7]?
A: 0.03 µg/mL

Q: What about the “MIC0 Blastomyces dermatitidis 05-186” value [7] of the same compound?
A: 0.06 µg/mL

Q: What about the “MIC0 Blastomyces dermatitidis 05-1391” value [7] of the same compound?
A: 0.03 µg/mL

Q: What about the “MIC0 Blastomyces dermatitidis 05-1707” value [7] of the same compound?
A: ≦0.015 μg/mL

Q: What about the “MIC0 Blastomyces dermatitidis 05-1820” value [7] of the same compound?
A: 0.06 µg/mL

Q: And the “MIC0 Blastomyces dermatitidis 05-1829” value [7]?
A: 0.06 µg/mL

Q: What about the “MIC0 Blastomyces dermatitidis 05-2020” value [7] of the same compound?
A: 0.06 µg/mL

Q: And the “MIC0 Blastomyces dermatitidis R-3529” value [7]?
A: 0.063 µg/mL

Q: What about the “MIC0 Blastomyces dermatitidis R-35629” value [7] of the same compound?
A: 0.03 µg/mL

Q: What about the “MIC B. dermatitidis Gu” value [7] of the same compound?
A: 12.5 µg/mL (≈ 23.6 µM)

Q: What about the “MIC B. dermatitidis Kr” value [7] of the same compound?
A: >12.5 µg/mL

Q: And the “MIC B. dermatitidis V” value [7]?
A: 12.5 µg/mL (≈ 23.6 µM)

Q: What about the “MIC0 Tm” value [8] of the same compound?
A: 4 µg/mL

Q: What about the “MIC0 Tr” value [9] of the same compound?
A: 5.03 µg/mL

Q: What about the “MIC C. albicans 24433” value ([10]; strain 24433, 50% growth inhibition, range = minimum and maximum of multiple assays) of the same compound?
A: >32 µg/mL

Q: And the “MIC C. albicans 90028” value ([10]; strain 90028, 50% growth inhibition, range = minimum and maximum of multiple assays)?
A: >32 µg/mL

Q: And the “MIC H. capsulatum G217B” value [11]?
A: <0.19 µg/mL

Q: And the “MIC H. capsulatum GS20” value [11]?
A: <0.19 µg/mL

Q: And the “MIC0 Mc” value [12]?
A: 2 µg/mL

Q: And the “MIC S. apiospermum 94-54” value [13]?
A: >16 µg/mL

Q: What about the “MIC S. apiospermum 98-38” value [13] of the same compound?
A: >16 µg/mL

Q: What about the “MIC S. apiospermum 98-89” value [13] of the same compound?
A: 0.25 µg/mL (≈ 0.472 µM)

Q: What about the “MIC0 A. fumigatus ATCC 204305” value [14] of the same compound?
A: 1.32 µg/mL

Q: What does the source list for `CC[C@H]1O[C@@H](/C(C)=C/[C@H](C)/C=C/[C@H]2[C@@H](C)[C@@H]2/C=C/[C@@H]2O[C@H](CC(=O)O)C[C@H](N)[C@H]2O)CCC1C` (some centres unmarked) [IV-a, 20,21-dihydro ambruticin VS-5]?
A: MIC0 Ef [15]: 4 µg/mL; MIC0 C. parapsilosis 92019 [16]: <0.0625 µg/mL; MIC0 A. flavus ATCC 204304 [4]: 0.18 µg/mL; MIC0 C. krusei 6258 [17]: >32 µg/mL; MIC2 C. immitis 05-469 [5]: ≦0.15 μg/mL; MIC2 C. immitis 05-955 [5]: ≦0.15 μg/mL; MIC2 C. immitis 05-1387 [5]: ≦0.15 μg/mL; MIC0 Mg [6]: 0.5 µg/mL; MIC2 B. dermatitidis 05-106 [7]: ≦0.15 μg/mL; MIC2 B. dermatitidis 05-186 [7]: ≦0.15 μg/mL; MIC2 B. dermatitidis 05-1291 [7]: ≦0.15 μg/mL; MIC0 Tm [8]: 1 µg/mL; MIC0 Tr [9]: 0.5 µg/mL; MIC0 Ti [18]: 0.39 µg/mL; MIC2 C. albicans 05-1422 ([10]; strain 05-1422): ≦0.15 μg/mL; growth of Candida albicans strain 05-1422 ([10]; strain 05-1422, statement in words): inhibits growth; MIC2 C. albicans 05-1424 ([10]; strain 05-1424): >10 µg/mL; MIC2 C. albicans 05-1426 ([10]; strain 05-1426): >10 µg/mL; MIC0 C. albicans 90028 ([10]; strain 90028, 95% growth inhibition): >32 µg/mL; MIC2 H. capsulatum 05-959 [11]: ≦0.15 μg/mL; MIC2 H. capsulatum 05-1097 [11]: ≦0.15 μg/mL; MIC2 H. capsulatum 05-1159 [11]: ≦0.15 μg/mL; MIC0 Mc [12]: 0.5 µg/mL; MIC0 A. fumigatus ATCC 204305 [14]: 0.85 µg/mL
